Laboratory results reported in ChEMBL document CHEMBL1155715, “New natural epothilones from Sorangium cellulosum, strains So ce90/B2 and So ce90/D13: isolation, structure elucidation, and SAR studies” (J Nat Prod, 2001).
≈ marks a conversion by molar mass, not a printed value.

What follows are compounds tested on L929 (assay: Cytotoxicity against mouse L929 cells). Conditions: not given.
Type: cell-based

| SMILES | IC50 [µg/mL] |
| --- | --- |
| C/C(=C\c1csc(C)n1)[C@@H]1C/C=C/CCC[C@H](C)[C@H](O)[C@@H](C)C(=O)[C@@H](C)[C@@H](O)CC(=O)O1 | 0.4 (≈ 0.863 µM) |
| C/C(=C\c1csc(C)n1)[C@@H]1C/C=C/CCC[C@H](C)[C@H](O)[C@@H](C)C(=O)[C@H](C)[C@@H](O)CC(=O)O1 | 0.08 (≈ 0.173 µM) |

Same assay, conditions: read-out: IC50

| SMILES | IC50 [µg/mL] |
| --- | --- |
| C/C(=C\c1csc(C)n1)[C@@H](O)C/C=C\CCC[C@H](C)[C@H](O)[C@@H](C)C(=O)C(C)C | 0.8 (≈ 1.96 µM) |
| CCC(=O)[C@@H](C)CCC/C=C\C[C@H](O)/C(C)=C/c1csc(C)n1 | > 4 |
| CCC(=O)[C@@H](C)CCC/C(C)=C\C[C@H](O)/C(C)=C/c1csc(C)n1 | > 4 |
| C/C(=C\c1csc(C)n1)[C@@H]1C[C@@H]2O[C@@H]2CCC[C@H](C)[C@H](O)[C@@H](C)C(=O)[C@H](C)[C@@H](O)CC(=O)O1 [EPOTHILONE A1] | 0.02 (≈ 0.0417 µM) |
| C/C(=C\c1csc(C)n1)[C@@H]1C[C@@H]2O[C@@H]2CCC[C@H](C)[C@H](O)[C@@H](C)C(=O)[C@@H](C)[C@@H](O)CC(=O)O1 [EPOTHILONE A2] | 0.007 (≈ 0.0146 µM) |
| Cc1nc(/C=C/[C@@H]2C[C@@H]3O[C@@H]3CCC[C@H](C)[C@H](O)[C@@H](C)C(=O)C(C)(C)[C@@H](O)CC(=O)O2)cs1 [EPOTHILONE A8] | 0.02 (≈ 0.0417 µM) |
| Cc1nc(/C=C(\CO)[C@@H]2C[C@@H]3O[C@@H]3CCC[C@H](C)[C@H](O)[C@@H](C)C(=O)C(C)(C)[C@@H](O)CC(=O)O2)cs1 [EPOTHILONE A9] | 0.1 (≈ 0.196 µM) |
| C/C(=C\c1csc(C)n1)[C@@H]1C[C@@H]2O[C@@H]2CCC[C@H](C)[C@H](O)[C@@H](C)C(=O)C(C)(C)[C@@H](O)CC(=O)O1 [EPOTHILONE A] | 0.004 (≈ 0.0081 µM) |
| C/C(=C\c1csc(C)n1)[C@@H]1C/C=C\CCC[C@H](C)[C@H](O)[C@@H](C)C(=O)[C@H](C)[C@@H](O)CC(=O)O1 [EPOTHILONE C1] | 0.9 (≈ 1.94 µM) |
| C/C(=C\c1csc(C)n1)[C@@H]1C/C=C\CCC[C@H](C)[C@H](O)[C@@H](C)C(=O)[C@@H](C)[C@@H](O)CC(=O)O1 [EPOTHILONE C2] | 0.8 (≈ 1.73 µM) |
| C/C(=C\c1csc(C)n1)[C@@H]1C/C=C\CCC[C@H](C)[C@H](O)CC(=O)C(C)(C)[C@@H](O)CC(=O)O1 [EPOTHILONE C3] | 1.5 (≈ 3.24 µM) |
| C/C(=C\c1csc(C)n1)[C@@H]1C/C=C\CCCC[C@H](O)[C@@H](C)C(=O)C(C)(C)[C@@H](O)CC(=O)O1 [EPOTHILONE C4] | 0.8 (≈ 1.73 µM) |
| C/C(=C\c1csc(C)n1)[C@@H]1C/C=C\CC/C=C(\C)[C@H](O)[C@@H](C)C(=O)C(C)(C)[C@@H](O)CC(=O)O1 [EPOTHILONE C5] | 1.5 (≈ 3.15 µM) |
| C/C(=C\c1csc(C)n1)[C@@H]1C/C=C\C=C\C[C@H](C)[C@H](O)[C@@H](C)C(=O)C(C)(C)[C@@H](O)CC(=O)O1 [EPOTHILONE C6] | 0.12 (≈ 0.252 µM) |
| C/C(=C\c1csc(C)n1)[C@H]1OC(=O)C[C@H](O)C(C)(C)C(=O)[C@H](C)[C@@H](O)[C@@H](C)CCC/C=C\[C@@H]1O [EPOTHILONE C7] | 0.025 (≈ 0.0506 µM) |
| Cc1nc(/C=C/[C@@H]2C/C=C\CCC[C@H](C)[C@H](O)[C@@H](C)C(=O)C(C)(C)[C@@H](O)CC(=O)O2)cs1 [EPOTHILONE C8] | 0.25 (≈ 0.539 µM) |
| Cc1nc(/C=C(\CO)[C@@H]2C/C=C\CCC[C@H](C)[C@H](O)[C@@H](C)C(=O)C(C)(C)[C@@H](O)CC(=O)O2)cs1 [EPOTHILONE C9] | 0.2 (≈ 0.405 µM) |
| C/C(=C\c1csc(C)n1)[C@@H]1C/C=C\CCC[C@H](C)[C@H](O)[C@@H](C)C(=O)C(C)(C)[C@@H](O)CC(=O)O1 [EPOTHILONE C] | 0.06 (≈ 0.126 µM) |

| SMILES | IC50 [µg/mL] |
| --- | --- |
| C/C1=C/C[C@@H](/C(C)=C/c2csc(C)n2)OC(=O)C[C@H](O)[C@@H](C)C(=O)[C@H](C)[C@@H](O)[C@@H](C)CCC1 [EPOTHILONE D1] | 0.035 (≈ 0.0733 µM) |
| C/C1=C/C[C@@H](/C(C)=C/c2csc(C)n2)OC(=O)C[C@H](O)[C@H](C)C(=O)[C@H](C)[C@@H](O)[C@@H](C)CCC1 [EPOTHILONE D2] | 0.007 (≈ 0.0147 µM) |
| C/C1=C/C[C@@H](/C(C)=C/c2csc(C)n2)OC(=O)C[C@H](O)C(C)(C)C(=O)[C@H](C)[C@@H](O)/C(C)=C/CC1 [EPOTHILONE D5] | 0.2 (≈ 0.408 µM) |
| C/C1=C/C[C@@H](/C(C)=C/c2csc(C)n2)OC(=O)C[C@H](O)C(C)(C)C(=O)[C@H](C)[C@@H](O)[C@@H](C)CCC1 [EPOTHILONE D] | 0.02 (≈ 0.0407 µM) |
| C/C(=C\c1csc(CO)n1)[C@@H]1C[C@@H]2O[C@@H]2CCC[C@H](C)[C@H](O)[C@@H](C)C(=O)C(C)(C)[C@@H](O)CC(=O)O1 [EPOTHILONE E] | 0.01 (≈ 0.0196 µM) |
| C/C(=C\c1csc(CO)n1)[C@@H]1C[C@@H]2O[C@]2(C)CCC[C@H](C)[C@H](O)[C@@H](C)C(=O)C(C)(C)[C@@H](O)CC(=O)O1 [EPOTHILONE F] | 0.0015 (≈ 0.00286 µM) |
| C/C(=C\c1coc(C)n1)[C@@H]1C[C@@H]2O[C@@H]2CCC[C@H](C)[C@H](O)[C@@H](C)C(=O)C(C)(C)[C@@H](O)CC(=O)O1 [EPOTHILONE G1] | 0.006 (≈ 0.0126 µM) |
| C/C(=C\c1coc(C)n1)[C@@H]1C[C@@H]2O[C@]2(C)CCC[C@H](C)[C@H](O)[C@@H](C)C(=O)C(C)(C)[C@@H](O)CC(=O)O1 [EPOTHILONE G2] | 0.001 (≈ 0.00203 µM) |
| C/C(=C\c1coc(C)n1)[C@@H]1C/C=C\CCC[C@H](C)[C@H](O)[C@@H](C)C(=O)C(C)(C)[C@@H](O)CC(=O)O1 [EPOTHILONE H1] | 0.12 (≈ 0.26 µM) |
| C/C1=C/C[C@@H](/C(C)=C/c2coc(C)n2)OC(=O)C[C@H](O)C(C)(C)C(=O)[C@H](C)[C@@H](O)[C@@H](C)CCC1 [EPOTHILONE H2] | 0.011 (≈ 0.0231 µM) |
| C/C(=C\c1csc(C)n1)[C@@H]1C/C=C\CCCCC[C@H](C)[C@H](O)[C@@H](C)C(=O)C(C)(C)[C@@H](O)CC(=O)O1 [EPOTHILONE I1] | 0.8 (≈ 1.58 µM) |
| C/C(=C\c1csc(C)n1)[C@@H]1C/C=C\CCCC(C)C[C@H](C)[C@H](O)[C@@H](C)C(=O)C(C)(C)[C@@H](O)CC(=O)O1 (some centres not stated) [EPOTHILONE I2] | 0.4 (≈ 0.77 µM) |
| C/C1=C/C[C@@H](/C(C)=C/c2csc(C)n2)OC(=O)C[C@H](O)C(C)(C)C(=O)[C@H](C)[C@@H](O)[C@@H](C)CC(C)CCC1 (some centres not stated) [EPOTHILONE I3] | 0.6 (≈ 1.12 µM) |
| C/C(=C\c1csc(C)n1)[C@@H]1C/C=C\CCCC(C)C[C@H](C)[C@H](O)[C@@H](C)C(=O)[C@@H](C)[C@@H](O)CC(=O)O1 (some centres not stated) [EPOTHILONE I4] | 0.3 (≈ 0.593 µM) |
| C/C1=C/C[C@@H](/C(C)=C/c2csc(C)n2)OC(=O)C[C@H](O)[C@H](C)C(=O)[C@H](C)[C@@H](O)[C@@H](C)CC(C)CCC1 (some centres not stated) [EPOTHILONE I5] | 0.1 (≈ 0.192 µM) |
| C/C1=C/C[C@@H](/C(C)=C/c2csc(C)n2)OC(=O)C[C@H](O)[C@@H](C)C(=O)[C@H](C)[C@@H](O)[C@@H](C)CC(C)CCC1 (some centres not stated) [EPOTHILONE I6] | 0.6 (≈ 1.15 µM) |
| C/C(=C\c1csc(C)n1)[C@@H]1C[C@@H]2O[C@]2(C)CCC[C@H](C)[C@H](O)[C@@H](C)C(=O)C(C)(C)[C@@H](O)CC(=O)O1 [PATUPILONE] | 0.001 (≈ 0.00197 µM) |
